Reference: patent publication US20260184663A1, “INDENE COMPOUNDS, PHARMACEUTICAL COMPOSITIONS THEREOF, AND THEIR THERAPEUTIC APPLICATIONS” (NucMito Pharmaceuticals co. Ltd., priority 2022, published 2026)
Read-outs that look alike come from different tables or passages of the source.

Tests used:
Format in all cases: cell-based
SW480 (colon cancer) = test: Antiproliferative activity (CCK-8 cell viability), SW480; settings: Homo sapiens, 72 h; for inhibition at 3.3 µM: Compound concentration: 3.3 μM; for inhibition at 10 µM: Compound concentration: 10 μM; for inhibition at 30 µM: Compound concentration: 30 μM
Procedure, shortened: (§1)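 Cells were seeded at 2,000-5,000/well (HeLa in MEM, HepG2 and SW480 in DMEM, A549 in F-12K, all with 10% FBS) and treated with compound at 3.3, 10 or 30 μM for 72 h at 37° C. CCK-8 was added for 4 h, absorbance was read at 450 nm, and viability was expressed relative to DMSO-treated wells.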

[1] = system: B16F10 (malignant melanoma); test: Antiproliferative activity (CCK-8 cell viability), B16F10; settings: Mus musculus, 72 h, read-out: Antiproliferative activity in cancerous cells, B16F10 (inhibition of cell growth); for inhibition at 3.3 µM: B16-F10, Compound concentration: 3.3 μM; for inhibition at 10 µM: B16-F10, Compound concentration: 10 μM; for inhibition at 30 µM: B16-F10, Compound concentration: 30 μM
Procedure, shortened: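 Attached B16F10 cells in 96-well plates were incubated with compound at 37° C for 72 h, followed by 10 μL CCK-8 reagent per well and a further 4 h incubation. A multi-well plate reader measured absorbance at 450 nm. Percent viability across replicates was calculated against DMSO vehicle-treated cells.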

[2] = system: A431 (epidermoid carcinoma); test: Antiproliferative activity (CCK-8 cell viability), A431; settings: Homo sapiens, 72 h; for inhibition at 3.3 µM: A-431, Compound concentration: 3.3 μM; for inhibition at 10 µM: A-431, Compound concentration: 10 μM; for inhibition at 30 µM: A-431, Compound concentration: 30 μM
Procedure, shortened: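 Cell viability of compound-treated A431 cells was measured with a Cell Counting Kit-8. Each well received 10 μL of CCK-8 after 72 h of compound exposure, followed by 4 h incubation at 37° C. and a 450 nm plate-reader measurement. Percent viability was calculated relative to DMSO controls across replicates.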

[3] = system: A549 (lung adenocarcinoma); test: Antiproliferative activity (CCK-8 cell viability), A549; settings: Homo sapiens, 72 h; for inhibition at 3.3 µM: Compound concentration: 3.3 μM; for inhibition at 10 µM: Compound concentration: 10 μM; for inhibition at 30 µM: Compound concentration: 30 μM
Procedure, shortened: as §1

HepG2 (liver cancer) = test: Antiproliferative activity (CCK-8 cell viability), HepG2; settings: Homo sapiens, 72 h; for inhibition at 3.3 µM: Compound concentration: 3.3 μM; for inhibition at 10 µM: Compound concentration: 10 μM; for inhibition at 30 µM: Compound concentration: 30 μM
Procedure, shortened: as §1

HeLa (cervical cancer) = test: Antiproliferative activity (CCK-8 cell viability), HeLa; settings: Homo sapiens, 72 h, read-out: Antiproliferative activity in cancerous cells, HELA (inhibition of cell growth); for inhibition at 3.3 µM: Compound concentration: 3.3 μM; for inhibition at 10 µM: Compound concentration: 10 μM; for inhibition at 30 µM: Compound concentration: 30 μM
Procedure, shortened: as §1

[4] = system: MDA-MB-231 (breast cancer); test: Antiproliferative activity (CCK-8 cell viability), MDA-MB-231; settings: Homo sapiens, 72 h; for inhibition at 3.3 µM: Compound concentration: 3.3 μM; for inhibition at 10 µM: Compound concentration: 10 μM; for inhibition at 30 µM: Compound concentration: 30 μM
Procedure, shortened: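 In this CCK-8 viability assay, MDA-MB-231 cells maintained in Dulbecco's modified Eagle's medium containing 10% fetal bovine serum were placed in 96-well plates (2,000-5,000 cells/well) and treated with compound for 72 h at 37° C. A 4 h incubation with 10 μL CCK-8 followed, plates were read at 450 nm, and viability was expressed against DMSO vehicle wells across replicates.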

[5] = read-out: Antiproliferative activity in cancerous cells, SW480 (inhibition of cell growth)
[6] = read-out: Antiproliferative activity in cancerous cells, SW480
[7] = read-out: Antiproliferative activity in cancerous cells, A431 (inhibition of cell growth)
[8] = read-out: Antiproliferative activity in cancerous cells, A549 (inhibition of cell growth)
[9] = read-out: Antiproliferative activity in cancerous cells, HepG2 (inhibition of cell growth)
[10] = read-out: Antiproliferative activity in cancerous cells, MDA-MB-231 (inhibition of cell growth)
[11] = read-out: Antiproliferative activity in cancerous cells, MDA-MB-231

## COc1ccc(Oc2ccc(/C=C3/C(C)=C(CC(=O)O)c4cc(F)ccc43)cc2)cc1Cl [C70, (Z)-2-(1-(4-(3-Chloro-4-methoxyphenoxy)benzylidene)-5-fluoro-2-methyl-1H-inden-3-yl)acetic acid]
SW480 (colon cancer); [5]
  inhibition at 3.3 µM: < 30%
  inhibition at 10 µM: < 30%
SW480 (colon cancer); [6]
  inhibition at 30 µM: < 30%
[1]
  inhibition at 3.3 µM: < 30%
  inhibition at 10 µM: 30 to 50%
[2]; [7]
  inhibition at 3.3 µM: ≥ 50%
  inhibition at 10 µM: ≥ 50%
[3]; [8]
  inhibition at 3.3 µM: < 30%
  inhibition at 10 µM: 30 to 50%
HepG2 (liver cancer); [9]
  inhibition at 3.3 µM: < 30%
  inhibition at 10 µM: ≥ 50%
HeLa (cervical cancer)
  inhibition at 3.3 µM: < 30%
  inhibition at 10 µM: ≥ 50%
[4]; [10]
  inhibition at 3.3 µM: < 30%
  inhibition at 10 µM: < 30%
[4]; [11]
  inhibition at 30 µM: 30 to 50%

## CC1=C(CC(=O)O)c2cc(F)ccc2/C1=C\c1ccc(C(=O)c2cc3ccccc3o2)cc1 [C309, (Z)-2-(1-(4-(Benzofuran-2-carbonyl)benzylidene)-5-fluoro-2-methyl-1H-inden-3-yl)acetic acid]
SW480 (colon cancer); [5]
  inhibition at 3.3 µM: < 30%
  inhibition at 10 µM: ≥ 50%
  inhibition at 30 µM: ≥ 50%
[1]
  inhibition at 3.3 µM: < 30%
  inhibition at 10 µM: ≥ 50%
  inhibition at 30 µM: ≥ 50%
[2]; [7]
  inhibition at 3.3 µM: 30 to 50%
  inhibition at 10 µM: ≥ 50%
  inhibition at 30 µM: ≥ 50%
[3]; [8]
  inhibition at 3.3 µM: < 30%
  inhibition at 10 µM: 30 to 50%
  inhibition at 30 µM: ≥ 50%
HepG2 (liver cancer); [9]
  inhibition at 3.3 µM: < 30%
  inhibition at 10 µM: ≥ 50%
  inhibition at 30 µM: ≥ 50%
HeLa (cervical cancer)
  inhibition at 3.3 µM: 30 to 50%
  inhibition at 10 µM: ≥ 50%
  inhibition at 30 µM: ≥ 50%
[4]; [10]
  inhibition at 3.3 µM: 30 to 50%
  inhibition at 10 µM: 30 to 50%
  inhibition at 30 µM: ≥ 50%

## CC1=C(CC(=O)O)c2cc(F)ccc2/C1=C/c1ccc(Oc2ccc(Cl)cc2F)cc1 [E24, (E)-2-(1-(4-(4-Chloro-2-Fluorophenoxy)benzylidene)-5-fluoro-2-methyl-1H-inden-3-yl)acetic acid]
SW480 (colon cancer); [5]
  inhibition at 3.3 µM: < 30%
  inhibition at 10 µM: ≥ 50%
  inhibition at 30 µM: ≥ 50%
[1]
  inhibition at 3.3 µM: ≥ 50%
  inhibition at 10 µM: ≥ 50%
  inhibition at 30 µM: ≥ 50%
[2]; [7]
  inhibition at 3.3 µM: ≥ 50%
  inhibition at 10 µM: ≥ 50%
  inhibition at 30 µM: ≥ 50%
[3]; [8]
  inhibition at 3.3 µM: < 30%
  inhibition at 10 µM: 30 to 50%
  inhibition at 30 µM: ≥ 50%
HepG2 (liver cancer); [9]
  inhibition at 3.3 µM: < 30%
  inhibition at 10 µM: ≥ 50%
  inhibition at 30 µM: ≥ 50%
HeLa (cervical cancer)
  inhibition at 3.3 µM: < 30%
  inhibition at 10 µM: ≥ 50%
  inhibition at 30 µM: ≥ 50%
[4]; [10]
  inhibition at 3.3 µM: ≥ 50%
  inhibition at 10 µM: ≥ 50%
  inhibition at 30 µM: ≥ 50%

## CC1=C(CC(=O)O)c2cc(C)ccc2/C1=C\c1ccc(COCc2ccc(Cl)cc2)cc1 [B149, (Z)-2-(1-(4-(((4-Chlorobenzyl)oxy)methyl)benzylidene)-2,5-dimethyl-1H-inden-3-yl)acetic acid]
SW480 (colon cancer); [5]
  inhibition at 3.3 µM: < 30%
  inhibition at 10 µM: 30 to 50%
[1]
  inhibition at 3.3 µM: < 30%
  inhibition at 10 µM: < 30%
[2]; [7]
  inhibition at 3.3 µM: ≥ 50%
  inhibition at 10 µM: ≥ 50%
[3]; [8]
  inhibition at 3.3 µM: 30 to 50%
  inhibition at 10 µM: ≥ 50%
HepG2 (liver cancer); [9]
  inhibition at 3.3 µM: < 30%
  inhibition at 10 µM: ≥ 50%
HeLa (cervical cancer)
  inhibition at 3.3 µM: < 30%
  inhibition at 10 µM: ≥ 50%
[4]; [10]
  inhibition at 3.3 µM: < 30%
  inhibition at 10 µM: 30 to 50%

## CC1=C(CC(=O)O)c2cc(F)ccc2/C1=C\c1ccc(CCCc2ccc(Cl)cc2)cc1 [B119, (Z)-2-(1-(4-(3-(4-Chlorophenyl)propyl)benzylidene)-5-fluoro-2-methyl-1H-inden-3-yl)acetic acid]
SW480 (colon cancer); [5]
  inhibition at 3.3 µM: ≥ 50%
  inhibition at 10 µM: ≥ 50%
[1]
  inhibition at 3.3 µM: < 30%
  inhibition at 10 µM: ≥ 50%
[2]; [7]
  inhibition at 3.3 µM: ≥ 50%
  inhibition at 10 µM: ≥ 50%
[3]; [8]
  inhibition at 3.3 µM: 30 to 50%
  inhibition at 10 µM: ≥ 50%
HepG2 (liver cancer); [9]
  inhibition at 3.3 µM: ≥ 50%
  inhibition at 10 µM: ≥ 50%
HeLa (cervical cancer)
  inhibition at 3.3 µM: < 30%
  inhibition at 10 µM: ≥ 50%
[4]; [10]
  inhibition at 3.3 µM: < 30%
  inhibition at 10 µM: < 30%

## CC1=C(CC(=O)O)c2cc(F)ccc2/C1=C\c1ccc(Oc2ccc(O)c(Cl)c2)cc1 [C81, (Z)-2-(1-(4-(3-Chloro-4-hydroxyphenoxy)benzylidene)-5-fluoro-2-methyl-1H-inden-3-yl)acetic acid]
SW480 (colon cancer); [5]
  inhibition at 3.3 µM: < 30%
  inhibition at 10 µM: < 30%
[1]
  inhibition at 3.3 µM: < 30%
  inhibition at 10 µM: ≥ 50%
[2]; [7]
  inhibition at 3.3 µM: 30 to 50%
  inhibition at 10 µM: ≥ 50%
[3]; [8]
  inhibition at 3.3 µM: 30 to 50%
  inhibition at 10 µM: ≥ 50%
HepG2 (liver cancer); [9]
  inhibition at 3.3 µM: < 30%
  inhibition at 10 µM: ≥ 50%
HeLa (cervical cancer)
  inhibition at 3.3 µM: 30 to 50%
  inhibition at 10 µM: ≥ 50%
[4]; [10]
  inhibition at 3.3 µM: 30 to 50%
  inhibition at 10 µM: ≥ 50%

## CCc1ccc2c(c1)C(CC(=O)O)=C(C)/C2=C/c1ccc(COCc2ccc(F)cc2)cc1 [B107, (Z)-2-(5-Ethyl-1-(4-(((4-fluorobenzyl)oxy)methyl)benzylidene)-2-methyl-1H-inden-3-yl)acetic acid]
SW480 (colon cancer); [5]
  inhibition at 3.3 µM: ≥ 50%
  inhibition at 10 µM: ≥ 50%
[1]
  inhibition at 3.3 µM: < 30%
  inhibition at 10 µM: 30 to 50%
[2]; [7]
  inhibition at 3.3 µM: ≥ 50%
  inhibition at 10 µM: 30 to 50%
[3]; [8]
  inhibition at 3.3 µM: 30 to 50%
  inhibition at 10 µM: ≥ 50%
HepG2 (liver cancer); [9]
  inhibition at 3.3 µM: < 30%
  inhibition at 10 µM: < 30%
HeLa (cervical cancer)
  inhibition at 3.3 µM: < 30%
  inhibition at 10 µM: ≥ 50%
[4]; [10]
  inhibition at 3.3 µM: < 30%
  inhibition at 10 µM: 30 to 50%

## CC1=C(CCOC(=O)n2ccnc2)c2cc(F)ccc2/C1=C\c1ccc(Oc2ccc(F)cc2)cc1 [A204, (Z)-2-(5-Fluoro-1-(4-(4-fluorophenoxy)benzylidene)-2-methyl-1H-inden-3-yl)ethyl 1H-imidazole-1-carboxylate]
SW480 (colon cancer); [5]
  inhibition at 3.3 µM: < 30%
  inhibition at 10 µM: < 30%
SW480 (colon cancer); [6]
  inhibition at 30 µM: 30 to 50%
[1]
  inhibition at 3.3 µM: < 30%
  inhibition at 10 µM: < 30%
[2]; [7]
  inhibition at 3.3 µM: < 30%
  inhibition at 10 µM: < 30%
[2]; read-out: Antiproliferative activity in cancerous cells, A431
  inhibition at 30 µM: < 30%
[3]; [8]
  inhibition at 3.3 µM: < 30%
  inhibition at 10 µM: < 30%
[3]; read-out: Antiproliferative activity in cancerous cells, A549
  inhibition at 30 µM: 30 to 50%
HepG2 (liver cancer); [9]
  inhibition at 3.3 µM: < 30%
  inhibition at 10 µM: < 30%
HepG2 (liver cancer); read-out: Antiproliferative activity in cancerous cells, HepG2
  inhibition at 30 µM: < 30%
HeLa (cervical cancer)
  inhibition at 3.3 µM: < 30%
  inhibition at 10 µM: < 30%
[4]; [10]
  inhibition at 3.3 µM: < 30%
  inhibition at 10 µM: < 30%
[4]; [11]
  inhibition at 30 µM: 30 to 50%
